Assay results from ChEMBL document CHEMBL1201862, “PubChem BioAssay data set” (2004).
Active and inactive are the calls of the source.

Legend:
Vero = assay: cells; format: functional; settings: Chlorocebus sabaeus
Fatty acid synthase [1] = biological target: T1, Fatty acid synthase (Homo sapiens, UniProt P49327); assay: inhibition of human FAS-TE enzyme activity – biochemical, kinetic fluorescence intensity, dose response (AID 624326); format: functional;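 also: rate of fluorescence rise from hydrolysis of a fluorogenic O-methyl fluorescein ester substrate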
T1 sequence (P49327 whole entry): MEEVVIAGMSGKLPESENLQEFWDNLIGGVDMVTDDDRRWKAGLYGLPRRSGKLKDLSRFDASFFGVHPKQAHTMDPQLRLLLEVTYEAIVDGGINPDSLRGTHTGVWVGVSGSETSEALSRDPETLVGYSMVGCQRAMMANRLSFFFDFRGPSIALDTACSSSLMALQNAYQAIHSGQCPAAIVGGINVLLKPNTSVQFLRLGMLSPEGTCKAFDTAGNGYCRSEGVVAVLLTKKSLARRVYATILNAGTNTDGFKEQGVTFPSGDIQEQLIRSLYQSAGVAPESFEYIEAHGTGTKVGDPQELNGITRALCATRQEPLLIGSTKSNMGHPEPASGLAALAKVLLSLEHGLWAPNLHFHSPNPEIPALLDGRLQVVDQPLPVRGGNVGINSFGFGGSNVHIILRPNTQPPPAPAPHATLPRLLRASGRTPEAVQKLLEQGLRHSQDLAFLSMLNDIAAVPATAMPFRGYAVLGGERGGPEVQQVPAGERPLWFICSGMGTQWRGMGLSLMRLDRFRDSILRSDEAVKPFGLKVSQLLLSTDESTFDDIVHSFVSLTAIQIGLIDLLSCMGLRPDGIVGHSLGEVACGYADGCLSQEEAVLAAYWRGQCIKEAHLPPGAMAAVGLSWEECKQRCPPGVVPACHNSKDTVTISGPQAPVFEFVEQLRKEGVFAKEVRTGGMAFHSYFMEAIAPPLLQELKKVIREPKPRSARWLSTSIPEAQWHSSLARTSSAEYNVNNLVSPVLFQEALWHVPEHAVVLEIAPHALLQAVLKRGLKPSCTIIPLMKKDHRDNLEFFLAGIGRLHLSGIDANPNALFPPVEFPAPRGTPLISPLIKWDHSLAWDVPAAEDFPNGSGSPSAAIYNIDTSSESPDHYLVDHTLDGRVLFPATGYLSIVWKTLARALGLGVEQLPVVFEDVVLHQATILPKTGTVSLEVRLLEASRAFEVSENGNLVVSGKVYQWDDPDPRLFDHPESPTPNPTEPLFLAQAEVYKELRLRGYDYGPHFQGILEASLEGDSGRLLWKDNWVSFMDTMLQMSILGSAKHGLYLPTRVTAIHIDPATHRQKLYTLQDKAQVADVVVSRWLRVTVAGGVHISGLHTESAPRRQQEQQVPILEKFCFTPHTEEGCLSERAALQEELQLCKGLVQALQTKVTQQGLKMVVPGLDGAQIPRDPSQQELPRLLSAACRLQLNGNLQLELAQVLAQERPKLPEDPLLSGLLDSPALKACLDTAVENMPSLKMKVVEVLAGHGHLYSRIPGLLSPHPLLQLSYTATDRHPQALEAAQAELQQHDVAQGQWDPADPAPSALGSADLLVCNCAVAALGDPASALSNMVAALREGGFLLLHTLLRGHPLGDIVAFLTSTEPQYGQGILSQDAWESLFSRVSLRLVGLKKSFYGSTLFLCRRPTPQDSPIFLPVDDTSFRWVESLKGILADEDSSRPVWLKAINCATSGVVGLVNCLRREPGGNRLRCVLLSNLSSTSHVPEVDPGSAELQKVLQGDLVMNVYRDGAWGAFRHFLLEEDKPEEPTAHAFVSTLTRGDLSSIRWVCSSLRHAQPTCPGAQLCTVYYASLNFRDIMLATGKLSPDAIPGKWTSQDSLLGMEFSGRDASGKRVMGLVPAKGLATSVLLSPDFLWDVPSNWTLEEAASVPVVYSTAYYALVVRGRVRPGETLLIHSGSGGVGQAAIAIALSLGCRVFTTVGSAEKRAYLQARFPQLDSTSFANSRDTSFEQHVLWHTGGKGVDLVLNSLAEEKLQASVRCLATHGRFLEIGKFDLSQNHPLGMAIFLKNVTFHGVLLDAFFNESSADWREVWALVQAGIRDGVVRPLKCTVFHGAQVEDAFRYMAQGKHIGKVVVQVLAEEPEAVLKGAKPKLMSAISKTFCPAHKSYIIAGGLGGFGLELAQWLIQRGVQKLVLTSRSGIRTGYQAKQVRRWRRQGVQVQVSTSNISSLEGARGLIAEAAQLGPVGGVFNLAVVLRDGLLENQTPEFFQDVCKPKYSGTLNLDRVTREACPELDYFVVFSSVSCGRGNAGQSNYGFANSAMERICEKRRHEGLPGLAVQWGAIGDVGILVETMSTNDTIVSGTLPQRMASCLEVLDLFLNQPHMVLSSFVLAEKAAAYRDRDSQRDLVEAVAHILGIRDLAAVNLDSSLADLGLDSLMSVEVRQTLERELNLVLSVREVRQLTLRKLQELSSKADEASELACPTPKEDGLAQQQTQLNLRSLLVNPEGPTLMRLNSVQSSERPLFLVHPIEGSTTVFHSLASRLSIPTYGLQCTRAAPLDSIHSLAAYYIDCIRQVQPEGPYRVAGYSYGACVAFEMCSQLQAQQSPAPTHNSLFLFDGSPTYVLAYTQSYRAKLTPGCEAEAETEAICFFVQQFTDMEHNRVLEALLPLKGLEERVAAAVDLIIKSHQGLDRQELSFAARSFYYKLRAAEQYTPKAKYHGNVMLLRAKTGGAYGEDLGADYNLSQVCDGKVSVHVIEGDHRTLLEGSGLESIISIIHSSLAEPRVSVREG

Fatty acid synthase [2] = biological target: T1, Fatty acid synthase; assay: inhibition of human FAS-TE enzyme activity – biochemical, endpoint fluorescence intensity, uHTS hits, dose response (AID 624327); format: functional;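 also: fluorescence from hydrolysis of an O-methyl fluorescein acyl ester substrate by the enzyme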
Protein skinhead-1 = biological target: T2, Protein skinhead-1 (Caenorhabditis elegans, UniProt P34707); format: functional
T2 sequence (P34707 whole entry): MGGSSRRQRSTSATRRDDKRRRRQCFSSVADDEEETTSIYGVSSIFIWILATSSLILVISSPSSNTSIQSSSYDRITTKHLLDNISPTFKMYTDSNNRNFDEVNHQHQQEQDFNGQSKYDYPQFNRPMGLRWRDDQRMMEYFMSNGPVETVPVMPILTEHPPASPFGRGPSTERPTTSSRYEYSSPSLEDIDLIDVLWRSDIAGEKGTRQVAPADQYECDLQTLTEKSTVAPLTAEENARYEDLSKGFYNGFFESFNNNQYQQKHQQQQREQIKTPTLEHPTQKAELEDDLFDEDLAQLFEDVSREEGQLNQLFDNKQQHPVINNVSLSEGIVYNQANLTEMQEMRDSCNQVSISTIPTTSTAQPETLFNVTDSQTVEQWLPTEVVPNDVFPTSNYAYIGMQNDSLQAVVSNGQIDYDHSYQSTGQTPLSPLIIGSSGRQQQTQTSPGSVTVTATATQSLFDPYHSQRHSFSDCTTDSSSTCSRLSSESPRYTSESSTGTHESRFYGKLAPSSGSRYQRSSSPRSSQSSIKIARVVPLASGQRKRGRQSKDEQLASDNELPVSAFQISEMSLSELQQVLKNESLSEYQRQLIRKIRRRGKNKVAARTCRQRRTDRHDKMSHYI

Cytochrome P450 2C19 = Cytochrome P450 2C19 (Homo sapiens, UniProt P33261); assay: Cytochrome panel assay with activity outcomes. Panel member name: p450-cyp2c19 Compounds with AC50 equal or less than 10 uM are considered active; format: functional; settings: read-out: AC50
Cytochrome P450 2C19, sequence (P33261 whole entry): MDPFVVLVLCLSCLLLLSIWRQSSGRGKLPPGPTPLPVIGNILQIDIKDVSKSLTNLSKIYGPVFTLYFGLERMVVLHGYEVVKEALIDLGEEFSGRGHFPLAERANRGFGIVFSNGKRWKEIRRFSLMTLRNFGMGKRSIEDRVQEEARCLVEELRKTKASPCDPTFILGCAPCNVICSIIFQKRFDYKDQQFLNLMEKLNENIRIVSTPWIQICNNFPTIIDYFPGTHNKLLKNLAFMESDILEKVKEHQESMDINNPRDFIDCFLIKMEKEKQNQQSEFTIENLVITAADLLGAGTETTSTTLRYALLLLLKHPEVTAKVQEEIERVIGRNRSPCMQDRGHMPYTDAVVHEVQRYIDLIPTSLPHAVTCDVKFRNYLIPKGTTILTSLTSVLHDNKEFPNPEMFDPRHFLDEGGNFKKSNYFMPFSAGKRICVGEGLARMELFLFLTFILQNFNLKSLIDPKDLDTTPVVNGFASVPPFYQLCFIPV

[3] = alpha-synuclein stem-loop luciferase translation blockers – H4 neuroglioma cells, luminescence, confirmation (AID 1988); format: functional, cell-based
[4] = viability of uninfected HEp-2 cells – cell-based, HTS, cytotoxicity control for RSV inhibitor project, dose response (AID 2410); format: functional; settings: human respiratory syncytial virus
[5] = luciferase reporter signal suppression in cells – H4 neuroglioma cells, luminescence, dose response (AID 1990); format: functional, cell-based
[6] = Luminescence Cell-Based Dose Response HTS to Identify Inhibitors of 5'UTR Stem-Loop Driven Prion Protein mRNA Translation in H4 Neuroglioblastoma Cells. [Related pubchem assays: 1827 (Project Summary), 1813 (Primary HTS)]; format: functional
Nonstructural protein 1 = Nonstructural protein 1 (Influenza A virus, UniProt Q194T2); format: functional, Influenza A virus (A/California/07/2009(H1N1))
Nonstructural protein 1, sequence (Q194T2 whole entry, the tested form may be a part): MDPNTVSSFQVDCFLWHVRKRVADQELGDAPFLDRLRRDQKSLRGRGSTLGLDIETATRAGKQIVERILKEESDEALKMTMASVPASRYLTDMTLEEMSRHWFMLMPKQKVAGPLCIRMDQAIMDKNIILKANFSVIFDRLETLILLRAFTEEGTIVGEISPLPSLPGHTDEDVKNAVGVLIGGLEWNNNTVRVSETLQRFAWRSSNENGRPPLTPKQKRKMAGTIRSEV

[7] = blockers of HIV-1 envelope-mediated cell-cell fusion – cherry-pick, dose response (AID 652057); format: functional, cell-based
[8] = blockers of HIV-1 ZM109 envelope-driven cell-cell fusion – HeLa effector, CEM target cells, luciferase, cherry-pick, dose response (AID 652058); format: functional, cell-based;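 also: luciferase signal from HIV-1 Env mediated cell-cell fusion of effector and target cells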
[9] = HIV-1 AD8 envelope cell-cell fusion blockers – cherry-pick, dose response (AID 652062); format: functional, cell-based;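 also: luciferase signal from cell-cell fusion driven by HIV-1 clade B AD8 Env; potency is for inhibitors of fusion seen as a drop in luminescence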
[10] = biological target: T3, Replicative DNA helicase DnaB (Mycobacterium tuberculosis, UniProt P9WMR3); assay: DnaB intein splicing inhibitors, dose response, biochemical, cell-free fluorescence (AID 449749); format: functional
T3 sequence (P9WMR3 whole entry): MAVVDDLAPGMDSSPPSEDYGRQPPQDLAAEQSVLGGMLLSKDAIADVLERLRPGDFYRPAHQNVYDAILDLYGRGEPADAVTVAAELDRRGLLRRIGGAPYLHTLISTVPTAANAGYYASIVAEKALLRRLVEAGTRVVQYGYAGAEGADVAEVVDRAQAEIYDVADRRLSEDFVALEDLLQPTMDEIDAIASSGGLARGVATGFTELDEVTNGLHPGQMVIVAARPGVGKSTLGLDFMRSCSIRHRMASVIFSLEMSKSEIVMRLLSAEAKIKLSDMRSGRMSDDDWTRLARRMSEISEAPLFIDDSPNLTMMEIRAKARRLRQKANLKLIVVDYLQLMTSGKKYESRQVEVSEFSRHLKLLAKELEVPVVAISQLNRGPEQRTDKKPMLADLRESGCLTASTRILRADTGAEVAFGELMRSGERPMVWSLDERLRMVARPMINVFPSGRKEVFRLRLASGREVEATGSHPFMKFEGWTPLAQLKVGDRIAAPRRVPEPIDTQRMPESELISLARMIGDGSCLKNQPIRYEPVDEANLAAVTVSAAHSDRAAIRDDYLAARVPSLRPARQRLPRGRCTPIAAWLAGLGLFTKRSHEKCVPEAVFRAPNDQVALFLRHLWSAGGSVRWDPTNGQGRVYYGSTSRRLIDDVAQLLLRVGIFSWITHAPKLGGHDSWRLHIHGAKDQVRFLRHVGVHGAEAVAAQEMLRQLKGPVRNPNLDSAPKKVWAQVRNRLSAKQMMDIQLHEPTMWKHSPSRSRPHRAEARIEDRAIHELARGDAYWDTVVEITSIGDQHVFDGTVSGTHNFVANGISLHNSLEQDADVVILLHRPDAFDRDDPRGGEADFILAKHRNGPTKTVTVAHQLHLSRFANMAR

[11] = viability of PTEN-deleted HCT116 cells – cell-based, HCT116 PTEN knockout, dose response (AID 1047); format: functional;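 also: HCT116 colon tumor cells with PTEN knocked out; cells exposed to compound for 60 hours before readout; potency for loss of cell viability measured by luminescence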
[12] = viability of HCT116 lacking mutant beta-catenin – cell-based, human colon tumor, dose response (AID 1045); format: functional;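 also: HCT116 colon tumor cells with beta catenin knocked out; cells exposed to compound for 60 hours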
Protein RecA = biological target: T4, Protein RecA (Mycobacterium tuberculosis, UniProt P9WHJ3); assay: Fluorescence Cell-Free Homogeneous Dose Retest to Identify Inhibitors of RecA-Intein Splicing Activity. [Related pubchem assays (depositor defined):AID2097, AID2223, AID489010, AID492950]; format: functional
T4 sequence (P9WHJ3 whole entry): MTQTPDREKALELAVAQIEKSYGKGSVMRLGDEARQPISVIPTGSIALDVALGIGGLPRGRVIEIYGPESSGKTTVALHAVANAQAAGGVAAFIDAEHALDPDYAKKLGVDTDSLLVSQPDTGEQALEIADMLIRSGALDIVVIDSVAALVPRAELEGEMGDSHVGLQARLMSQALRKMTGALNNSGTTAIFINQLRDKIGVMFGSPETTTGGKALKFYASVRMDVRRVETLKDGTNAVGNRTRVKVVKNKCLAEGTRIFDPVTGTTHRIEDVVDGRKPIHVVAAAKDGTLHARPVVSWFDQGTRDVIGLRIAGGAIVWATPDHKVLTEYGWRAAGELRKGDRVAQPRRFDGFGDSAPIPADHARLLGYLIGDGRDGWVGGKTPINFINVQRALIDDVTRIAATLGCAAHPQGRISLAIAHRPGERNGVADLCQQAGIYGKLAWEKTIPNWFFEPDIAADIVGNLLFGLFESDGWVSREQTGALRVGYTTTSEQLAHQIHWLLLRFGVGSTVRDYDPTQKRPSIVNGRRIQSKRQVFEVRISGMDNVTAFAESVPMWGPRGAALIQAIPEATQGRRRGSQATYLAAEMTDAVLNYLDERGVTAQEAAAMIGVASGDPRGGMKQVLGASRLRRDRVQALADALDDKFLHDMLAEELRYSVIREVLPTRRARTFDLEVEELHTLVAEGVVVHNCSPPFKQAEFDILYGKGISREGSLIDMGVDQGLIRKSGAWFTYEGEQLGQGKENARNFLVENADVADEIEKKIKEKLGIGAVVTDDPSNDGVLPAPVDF

[13] = microbe, parasite or virus in culture; format: functional; settings: Mycobacterium tuberculosis
[14] = non-specific 3'UTR reporter inhibition in Clone20-Shn3RL – cell-based, Renilla luciferase, cherry-picked, counter-screen for Shn3 inhibitor project, dose response (AID 624133); format: functional
[15] = reduction of Shn3 3'UTR-driven luciferase in osteoblasts – cell-based, Clone20 osteoblasts, firefly luciferase, cherry-picked, dose response (AID 624132); format: functional;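 also: firefly luciferase luminescence from reporter carrying the Shn3 3'UTR in osteoblasts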
[16] = loss of viability in HepG2 cells – cell-based, CellTiter-Glo, cherry-picked, cytotoxicity control for Shn3 inhibitor project, dose response (AID 624134); format: functional

## CC(C)C[C@H]1CN([C@@H](CC(C)C)CN2CCCC2CN2C(=S)NC[C@@H]2Cc2ccc(O)cc2)C(=S)N1CC1CCCCCC1 (stereo partly drawn)
Vero
  CC50: 20.9 µM (active)

## O=C(Nc1cccc(C(=O)O)c1)/C(=C\c1cccc([N+](=O)[O-])c1)NC(=O)c1ccc(Br)cc1
Fatty acid synthase [1]
  IC50: 5.19 µM (active)
Fatty acid synthase [2]
  IC50: 4.62 µM (active)

## Clc1ccc(-c2cn3c(n2)-c2ccccc2C3)cc1Cl
Protein skinhead-1
  IC50: > 100 µM (inactive)

## Clc1ccc2oc(-c3cccnc3)nc2c1
Cytochrome P450 2C19
  AC50: 14.1 µM (inconclusive)
Protein skinhead-1
  IC50: 29 µM (active)

## CCN(CC)S(=O)(=O)c1ccc(C2=NOC3(C2)N(C)c2ccccc2C3(C)C)cc1 (stereo not drawn)
[3]
  EC50: 0.516 µM (active)
[4]
  CC50: > 50 µM (active)
[5]
  EC50: > 120 µM (not active)
[6]
  EC50: 29 µM (active)

## COc1cccc(-n2c(CN3CCN(c4ccccn4)CC3)nc3ccc([N+](=O)[O-])cc3c2=O)c1
Fatty acid synthase [1]
  IC50: 3.67 µM (active)
Fatty acid synthase [2]
  IC50: 3.23 µM (active)

## COc1ccccc1N1CCN(CC(O)c2c(C)[nH]c3ccccc23)CC1 (stereo not drawn)
Vero
  CC50: > 25 µM (active)

## Cc1cc(C)c2cc(C#N)c(N3CCCC3)nc2c1
Protein skinhead-1
  IC50: > 100 µM (inactive)

## CCN(Cc1ccccc1)c1ccc(N=Nc2nn(C)c(C)c2[N+](=O)[O-])cc1
Nonstructural protein 1
  IC50: 9.29 µM (active)
Fatty acid synthase [1]
  IC50: 7.95 µM (active)
Fatty acid synthase [2]
  IC50: 13.9 µM (active)

## O=C1CC(c2cccc([N+](=O)[O-])c2)c2c(ccc3ccccc23)N1 (stereo not drawn)
Fatty acid synthase [1]
  IC50: 56.4 µM (inactive)
Fatty acid synthase [2]
  IC50: 52.2 µM (inactive)

## Cc1ccc(S(=O)(=O)Nc2ccc3c(c2)CC(=O)N([C@@H](C)CO)C[C@H](C)[C@H](CN(C)S(=O)(=O)c2ccccc2)O3)cc1
[7]
  AC50: 14.7 µM (active)
[8]
  AC50: 15.5 µM (active)
[9]
  AC50: 34.2 µM (active)

## Clc1ccc(Sc2oc(/C=N/n3cnnc3)cc2Br)cc1
[10]
  AC50: 2 µM (active)
[11]
  EC50: 15.2 µM (active)
[12]
  EC50: 43.8 µM (active)
Protein RecA
  EC50: 8.65 µM (active)

## O=[N+]([O-])c1ccc(C2CC(c3ccccc3)=Nc3ccccc3S2)cc1 (stereo not drawn)
[13]
  CC50: 37.4 µM (active)

## Cc1ccc(OCCNC(=O)CNC(=O)c2ccc(Cl)c([N+](=O)[O-])c2)cc1
Fatty acid synthase [1]
  IC50: 9.71 µM (active)
Fatty acid synthase [2]
  IC50: 8.99 µM (active)

## N#Cc1cc(C(=O)c2ccccc2OCC(=O)Nc2ccccc2Cl)cn(C2CCCCC2)c1=O
[3]
  EC50: > 120 µM (not active)
[5]
  EC50: 22 µM (active)
[6]
  EC50: > 120 µM (not active)

## CC(=O)Nc1sc(/C(C#N)=C\c2cccc(Cl)c2)nc1-c1ccc(C)cc1
Protein skinhead-1
  IC50: > 100 µM (inactive)

## Cc1ccc(C)c(S(=O)(=O)N2CCN(C(=O)C3CCN(c4ncnc5sc(C)c(C)c45)CC3)CC2)c1
[14]
  AC50: 2.29 µM (active)
[15]
  AC50: 2.82 µM (active)
[16]
  AC50: > 70 µM (inactive)

## COC(=O)C1=C(c2ccc(OCc3ccccc3)cc2)C[C@@H]2CC[C@H]1N2C(=O)NCc1ccc(C(C)(C)C)cc1
[14]
  AC50: 1.63 µM (active)
[15]
  AC50: 6.84 µM (active)
[16]
  AC50: > 70 µM (inactive)

## C=CCn1c(SCc2cc(=O)n3ccsc3n2)nc2sc(C)c(C)c2c1=O
[3]
  EC50: > 120 µM (not active)
[5]
  EC50: 15.3 µM (active)
[6]
  EC50: > 120 µM (not active)

## Cc1c(NC(=O)CCC2CCCCC2)cc(C(=O)N2CCOCC2)cc1[N+](=O)[O-]
[3]
  EC50: > 120 µM (not active)
[5]
  EC50: > 120 µM (not active)
[6]
  EC50: > 120 µM (not active)

## O=C(NC1CC1)c1cc(-c2ccc(Br)cc2)nc2ccccc12
Protein skinhead-1
  IC50: > 100 µM (inactive)

## O=C(CN1CCCC1c1cccs1)Nc1cc(S(=O)(=O)N2CCCCC2)ccc1Cl (stereo not drawn)
[14]
  AC50: 6.82 µM (active)
[15]
  AC50: 14.4 µM (active)
[16]
  AC50: 60.5 µM (active)

## COC(=O)c1c(NC(=O)CCl)sc(C(=O)N2CCOCC2)c1C
[13]
  CC50: 16.4 µM (active)

## Cc1ccc(-c2csc(-c3ccncc3)n2)cc1
Protein skinhead-1
  IC50: 65.2 µM (inactive)

## O=C(C[C@H]1C=C[C@@H](NC(=O)Nc2ccccc2F)[C@@H](CO)O1)NCc1ccc(-c2ccccc2)cc1
[7]
  AC50: < 0.26 µM (active)
[8]
  AC50: < 0.26 µM (active)
[9]
  AC50: < 0.26 µM (active)

## C[C@H](CO)N1C[C@H](C)[C@H](CN(C)S(=O)(=O)c2ccccc2)Oc2ccc(NC(=O)Cn3cnnn3)cc2CC1=O
[7]
  AC50: 13.5 µM (active)
[8]
  AC50: 2.07 µM (active)
[9]
  AC50: 20.3 µM (active)

## O=C(Nc1ccc(C2CC2(Cl)Cl)cc1)c1ccccc1Br (stereo not drawn)
Protein skinhead-1
  IC50: 70 µM (inactive)

## Cn1nc(C(C)(C)C)cc1C(=O)N1CCCCC1c1cc(C(=O)Nc2cccc3c2CCCC3)no1 (stereo not drawn)
[14]
  AC50: 16.5 µM (active)
[15]
  AC50: 10.2 µM (active)
[16]
  AC50: 62.8 µM (active)

## Cc1cc2c(=O)oc(-c3ccccc3Br)nc2s1
Fatty acid synthase [1]
  IC50: 8.01 µM (active)
Fatty acid synthase [2]
  IC50: 7.57 µM (active)
